In ChEMBL document CHEMBL5725668, “Cyclobutane containing carboxylic acid GPR120 modulators” (2018) one finds EC50 data, which are given here for four compounds.

SMILES strings stand for the structures.

This assay can be described thus: GPR120 pERK AlphaScreen SureFire Assay: The human and mouse GPR120-mediated intracellular phosphorylated ERK assays were established using CHOA12 cells stably transfected with the short form of human or mouse GPR120 receptor. Cells were cultured in growth medium consisting of F-12 media (Invitrogen Cat. #11765) with 5% Charcoal/Dextran FBS (Invitrogen Cat. #12676-029), 500 μg/mL GENETICIN® (Life Technologies Cat. #10131-027) and 250 μg/mL Zeocin (Invitrogen Cat. #R250-01). Cells were cryo preserved at a concentration of 2×10^7 cells/mL, in 90% Charcoal/Dextran FBS and 10% DMSO, and frozen in liquid nitrogen at a low passage number.For the pERK assay, 2×10^7 cells/mL cryopreserved human and mouse cells were thawed rapidly in a 37° C. water bath and added to a T-225 flask containing 50 mL growth medium. The flasks were placed in a tissue culture incubator overnight (37° C., 5% CO2). The next day, cells were harvested with trypsin (Gibco Cat. #25300-054), resuspended in serum-containing growth medium and counted using a Cellometer and volume adjusted to a concentration of 0.6×10^6 cells/mL. Cells were plated into 384-well clear bottom tissue culture plates (BD Cat. #353962) at 50 μL/well, for a density of 30,000 cells/well using a MULTIDROP® and incubated for 16-18 hours (overnight) at 37° C. with 5% CO2. The next day, cells were serum starved in 30 μL of F-12 media without any serum or antibiotics for 2 hours at 37° C.Test compounds were 3-fold, 11-point serially diluted in DMSO in a REMP assay plate (Matrix Cat. #4307) by Tecan and 5 μL was transferred into an ECHO source plate (Labcyte Cat. #LC-0200). Cells were then stimulated with 50 nL of compound dilutions using ECHO liquid handler for 7 minutes at 37° C. Compounds ranged from final assay concentrations of 33.33 μM to 0.56 nM.The media was then dumped and cells lysed with 20 μL of 1× Lysis buffer from the AlphaScreen SureFire Phospho-ERK 1/2 Kit (Perkin Elmer Cat. #6760617M). The lysis buffer was diluted 5-fold with water before use. The plate was agitated on a shaker for 10 minutes after which 2 μL was transferred into a 384-well white proxiplate (Perkin Elmer Cat. #6008289). The SureFire assay reagent mix was prepared by mixing 60 parts Reaction Buffer, 10 parts Activation Buffer, 1 part Donor Beads, 1 part Acceptor Beads (Perkin Elmer Cat. #TGRES10K). 3.5 μL/well of this reagent mix was manually added to the proxiplate with a multichannel pipettor. Plates were spun down at 1000 rpm for 2 minutes, followed by light-protected incubation at room temperature for 2 hours. The plates were read on the Alpha-technology compatible Envision multilabel plate reader using AlphaScreen protocol according to manufacturer's specifications. […]. It is filed as cell-based.
`O=C(O)CO[C@H]1C[C@@H](c2ccc(-c3cc(Oc4ccc(F)cc4)cc(F)c3F)cc2)C1`: the EC50 came to 590 nM. Next, `O=C(O)CO[C@H]1C[C@@H](c2ccc(-c3ccccc3Oc3ccccc3)cc2)C1`: 1460 nM. On to `Cc1nc(C)c(-c2ccc([C@H]3C[C@@H](OCC(=O)O)C3)cc2)s1`, for which the 50% effective concentration (EC50) came to 3460 nM. For `CC(C)Oc1cc(-c2ccc([C@H]3C[C@@H](OCC(=O)O)C3)cc2)c(F)cn1` the value was 2070 nM.
